Results reported in patent US20260022118A1, “HETEROCYCLIC COMPOUNDS AS NRAS INHIBITORS” (Board of Regents, The University of Texas System, priority 2023, published 2026).
Like-named read-outs stand apart in the source and are kept apart here.

Legend:
NRAS G12D C118S = NRAS G12D C118S (Homo sapiens (Human), UniProt P01111, C118S/G12D); test: NRas G12D Surface Plasmon Resonance (SPR) binding assay; conditions: Avi-tagged biotinylated NRAS G12D C118S on streptavidin chip, 25° C., 1:1 kinetic or steady-state fit
Sequence of NRAS G12D C118S (P01111 whole entry G12D/C118S): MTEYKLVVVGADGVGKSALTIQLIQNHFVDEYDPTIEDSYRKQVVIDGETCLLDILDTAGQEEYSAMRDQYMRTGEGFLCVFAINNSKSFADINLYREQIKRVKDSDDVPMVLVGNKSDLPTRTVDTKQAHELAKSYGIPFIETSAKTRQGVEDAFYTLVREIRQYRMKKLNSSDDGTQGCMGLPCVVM
Method: NRas G12D Surface Plasmon Resonance (SPR) Binding Assay
This Example illustrates that exemplary compounds and salts thereof described herein bind to NRAS G12D as measured by surface plasmon resonance (SPR).
Two liters of 1.03× running buffer (1.03×HBS-P+pH 7.4, containing 0.0103 M HEPES, 0.1545 M NaCl, 0.0515% v/v Surfactant P20 (Cytiva®, BR100671); 5.15 mM MgCl2 (Invitrogen, AM9530G); 0.515 mM TCEP, pH 8.0 (GoldBio®, TCEP25)) was prepared and filter sterilized using a 0.22 μm filter. A 1-L volumetric flask was filled partway with this buffer. A 30-mL volumetric flask was used to measure 30 mL of 100% DMSO (Sigma Aldrich®, 41639-100ML) which was added to the 1-L flask. The solution in the 1-L flask was brought up to 1 L with 1.03× buffer, resulting in a 1.0× assay running buffer containing 1.0×HBS-P+, 5 mM MgCl2, […], and 3% DMSO. Remaining 1.03× buffer was used for preparation of samples and immobilization running buffer.
Samples were prepared in a standard conical-bottomed 384-well microplate by adding 2 μL 10 mM DMSO cpd stock to each well, followed by 8 μL DMSO. A control compound was selected based off of its relatively “fast” kinetics that could be fitted by 1:1 kinetic fitting, as well as by steady-state fitting. Control wells for periodic injection to assess protein activity throughout the assay were also assembled, by diluting 10 mM compound 1:30 in DMSO, then adding 20 μL to the appropriate wells, such that the final concentration of compound would be 10 μM, and the final concentration of DMSO would be 3%. A Biomek™ FXP Laboratory Automation Workstation was used to stamp 20 μL DMSO into all sample wells—minus the control wells—according to the plate map, and then serially dilute 1:3 by mixing and aspirating 10 μL, delivering into the 20 μL of DMSO in the next well, resulting in 10-point serial dilution curves. A Biotek™ Multiflo EL406 Washer Dispenser was used to deliver 80 μL of 1.03× buffer to the compound plate. The plate was mixed 10× by FX, then a final dilution was performed by stamping 18 μL from the compound plate into a 384-well deep-well plate that had also been previously filled with 102 μL 1.03× buffer via the Multiflo. The solution in the deep-well plate was mixed 10× by FX, then sealed with a 384-well microplate foil from Cytiva® (Cytiva® BR100577) and placed on an orbital shaker for 30 minutes at 1000 RPM to ensure complete mixing of the DMSO solution in the buffer. A solvent correction curve was also prepared by making a 4% DMSO solution in 1.03× buffer and diluting in 1.03× buffer such that there were eight solutions of decreasing DMSO concentrations resulting in a high DMSO concentration of 4% and a low concentration of 2% DMSO.
Immobilization running buffer was prepared in a 200-mL volume by diluting 1.03× running buffer prepared above to 1.0×. A Cytiva® Streptavidin chip (Cytiva®, 29104992) was docked into a Biacore™ S200 instrument, and the instrument was then primed three times into the immobilization running buffer. A protein stock of Avi-tagged NRAS G12D C118S was prepared in-house and biotinylated using the Bulk BirA: BirA biotin-protein ligase bulk reaction kit from Avidity (Avidity®, Bulk BirA). Upon completion of the biotinylation reaction, Amicon® ultra 0.5-mL Centrifugal Filters with a MWCO of 3 k Da (Millipore® UFC500396) were used to reduce the free biotin concentration below 0.1 μM in the protein sample over the course of eight desalting cycles, according to the manufacturer's protocol. Resulting protein concentration was not measured directly as an accurate protein concentration is not required for immobilizing protein on the chip surface; however, a theoretical yield of ≤1.5 mg/mL was estimated based off of retained volumes during the desalting process. Reagents for immobilization were prepared as instructed in the Biacore™ 5200 Control Software Immobilization Wizard, including solutions of 1 M NaCl in 50 mM NaOH, and 1 M NaCl in 50 mM NaOH and 50% isopropyl alcohol. […]

[1] = test system: THP-1 cells expressing G12D (NRAS G12D); test: Inhibition of NRAS G12D-mediated phosphorylation of ERK (AlphaLISA p-ERK1/2) in THP-1 cells; type: cell-based; conditions: 2 hours incubation, HBSS with 0% or 10% FBS, p-ERK1/2 (Thr202/Tyr204) AlphaLISA, read-out: pERK THP-1 IC50
Procedure, shortened: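 THP-1 cells expressing NRAS G12D, seeded in HBSS with 0% or 10% FBS, were exposed to test compound (1% DMSO final) for 2 h. p-ERK1/2 (Thr202/Tyr204) read by AlphaLISA SureFire Ultra. IC50 from curves normalized to no-inhibitor (100%) and 1 μM trametinib (0%) controls.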

Row | Kd (NRAS G12D C118S) | IC50 ([1]; Homo sapiens, THP-1, 2 h) | IC50 [1] | Compound
1 | 0.0738 µM | 2.07 µM | – | C#Cc1c(F)ccc2cc(O)cc(-c3ncc4c(N5CC6CCC5CN6)nn(C)c4c3F)c12 (stereo not drawn) [Example 26, 4-(3-(2,5-diazabicyclo[2.2.2]octan-2-yl)-7-fluoro-1-methyl-1H-pyrazolo[4,3-c]pyridin-6-yl)-5-ethynyl-6-fluoronaphthalen-2-ol]
2 | 3.18 µM | 9.56 µM | – | C#Cc1c(F)ccc2cc(O)cc(-c3ccc4c([C@H]5[C@@H]6CNC[C@@H]65)nn(C)c4c3F)c12 [Example 27, 4-(3-((1R,5S,6r)-3-azabicyclo[3.1.0]hexan-6-yl)-7-fluoro-1-methyl-1H-indazol-6-yl)-5-ethynyl-6-fluoronaphthalen-2-ol]
3 | 1.1 µM | 11.9 µM | – | C#Cc1c(F)ccc2cc(O)cc(-c3ncc4c(N5CC6CC5CN6)nn(C)c4c3F)c12 (stereo not drawn) [Example 28, 4-(3-(2,5-diazabicyclo[2.2.1]heptan-2-yl)-7-fluoro-1-methyl-1H-pyrazolo[4,3-c]pyridin-6-yl)-5-ethynyl-6-fluoronaphthalen-2-ol]
4 | 0.965 µM | 3.1 µM | – | C#Cc1c(F)ccc2cc(O)cc(-c3c(F)cc4c([C@H]5[C@@H]6CNC[C@@H]65)cn(C)c4c3F)c12 [Example 29, 4-(3-((1R,5S,6s)-3-azabicyclo[3.1.0]hexan-6-yl)-5,7-difluoro-1-methyl-1H-indol-6-yl)-5-ethynyl-6-fluoronaphthalen-2-ol]
5 | 0.0519 µM | 1.19 µM | – | C#Cc1c(F)ccc2cc(O)cc(-c3ncc4c(N5C[C@@H]6CC[C@H]5CN6)nn(C)c4c3F)c12 [Example 30, 4-(3-((1S,4S)-2,5-diazabicyclo[2.2.2]octan-2-yl)-7-fluoro-1-methyl-1H-pyrazolo[4,3-c]pyridin-6-yl)-5-ethynyl-6-fluoronaphthalen-2-ol]
6 | 8.75 µM | > 50 µM | – | C#Cc1c(F)ccc2cc(O)cc(-c3ncc4c(N5CC(N(C)C)C5)nn(C)c4c3F)c12 [Example 33, 4-[3-[3-(dimethylamino)azetidin-1-yl]-7-fluoro-1-methyl-pyrazolo[4,3-c]pyridin-6-yl]-5-ethynyl-6-fluoro-naphthalen-2-ol]
7 | 4.03 µM | 12.8 µM | – | C#Cc1c(F)ccc2cc(O)cc(-c3ncc4c(N5CC6CCCC5CN6)nn(C)c4c3F)c12 (stereo not drawn) [Example 36, 4-[3-(6,8-diazabicyclo[3.2.2]nonan-6-yl)-7-fluoro-1-methyl-pyrazolo[4,3-c]pyridin-6-yl]-5-ethynyl-6-fluoro-naphthalen-2-ol]
8 | 3.99 µM | 18.3 µM | – | C#Cc1c(F)ccc2cc(O)cc(-c3ncc4c(c(C)cn4C4=CC5CCC4CN5)c3F)c12 (stereo not drawn) [Example 38, 4-[1-(2-azabicyclo[2.2.2]oct-5-en-5-yl)-4-fluoro-3-methyl-pyrrolo[2,3-c]pyridin-5-yl]-5-ethynyl-6-fluoro-naphthalen-2-ol]
9 | 0.435 µM | 4.82 µM | – | C#Cc1c(F)ccc2cc(O)cc(-c3ncc4c(c(C)cn4C4CC5CCC4CN5)c3F)c12 (stereo not drawn) [Example 39, 4-[1-(2-azabicyclo[2.2.2]octan-5-yl)-4-fluoro-3-methyl-pyrrolo[2,3-c]pyridin-5-yl]-5-ethynyl-6-fluoro-naphthalen-2-ol]
10 | 1.13 µM | > 10 µM | – | C#Cc1c(F)ccc2cc(O)cc(-c3ncc4c(c(C)cn4C4[C@H]5CNC[C@@H]45)c3F)c12 (stereo partly drawn) [Example 40, 4-[1-[(1R,5S)-3-azabicyclo[3.1.0]hexan-6-yl]-4-fluoro-3-methyl-pyrrolo[2,3-c]pyridin-5-yl]-5-ethynyl-6-fluoro-naphthalen-2-ol]
11 | 2.98 µM | > 10 µM | – | C#Cc1c(F)ccc2cc(O)cc(-c3ncc4c(C5=CC6CCC5CN6)nn(C)c4c3F)c12 (stereo not drawn) [Example 42, 4-[3-(2-azabicyclo[2.2.2]oct-5-en-5-yl)-7-fluoro-1-methyl-pyrazolo[4,3-c]pyridin-6-yl]-5-ethynyl-6-fluoro-naphthalen-2-ol]
12 | 0.201 µM | – | 6.74 µM | C#Cc1c(F)ccc2cc(O)cc(-c3ncc4c(C5CC6CCC5CN6)nn(C)c4c3F)c12 (stereo not drawn) [Example 44, 4-[3-(2-azabicyclo[2.2.2]octan-5-yl)-7-fluoro-1-methyl-pyrazolo[4,3-c]pyridin-6-yl]-5-ethynyl-6-fluoro-naphthalen-2-ol]
13 | 9.94 µM | > 10 µM | – | C#Cc1c(F)ccc2cc(O)cc(-c3ncc4c(c3F)n(C)c(=O)n4C3[C@H]4CNC[C@@H]34)c12 (stereo partly drawn) [Example 45, 3-[(1R,5S)-3-azabicyclo[3.1.0]hexan-6-yl]-6-(8-ethynyl-7-fluoro-3-hydroxy-1-naphthyl)-7-fluoro-1-methyl-imidazo[4,5-c]pyridin-2-one]
14 | 0.0607 µM | 1.94 µM | – | C#Cc1c(F)ccc2cc(O)cc(-c3ncc4c([C@H]5[C@@H]6CNC[C@@H]65)nn(C5C[C@@H]5C)c4c3F)c12 (stereo partly drawn) [Example 46, 4-(3-((1R,5S,6r)-3-azabicyclo[3.1.0]hexan-6-yl)-7-fluoro-1-((1S,2S)-2-methylcyclopropyl)-1H-pyrazolo[4,3-c]pyridin-6-yl)-5-ethynyl-6-fluoronaphthalen-2-ol]
15 | 0.0815 µM | 0.438 µM | – | C#Cc1c(F)ccc2cc(O)cc(-c3ncc4c(C5C6CNCC65)nn(C5CC5(F)F)c4c3F)c12 (stereo not drawn) [Example 49, 4-[3-(3-azabicyclo[3.1.0]hexan-6-yl)-1-(2,2-difluorocyclopropyl)-7-fluoro-pyrazolo[4,3-c]pyridin-6-yl]-5-ethynyl-6-fluoro-naphthalen-2-ol]

Row | Compound | Kd (NRAS G12D C118S) | IC50 ([1]; Homo sapiens, THP-1, 2 h) | IC50 [1]
16 | C#Cc1c(F)ccc2cc(O)cc(-c3ncc4c(N5CC6CCCC(C5)N6)nn(C)c4c3F)c12 [Example 31, 4-[3-(3,9-diazabicyclo[3.3.1]nonan-3-yl)-7-fluoro-1-methyl-pyrazolo[4,3-c]pyridin-6-yl]-5-ethynyl-6-fluoro-naphthalen-2-ol] | 3.43 µM | 18.1 µM | –
17 | C#Cc1c(F)ccc2cc(O)cc(-c3ncc4c(N5CC6CC(C5)N6)nn(C)c4c3F)c12 [Example 34, 4-[3-(3,6-diazabicyclo[3.1.1]heptan-3-yl)-7-fluoro-1-methyl-pyrazolo[4,3-c]pyridin-6-yl]-5-ethynyl-6-fluoro-naphthalen-2-ol] | 0.613 µM | 5.98 µM | –
18 | C#Cc1c(F)ccc2cc(O)cc(-c3ncc4c(N5C[C@@H]6C[C@H](O)[C@H](C5)N6)nn(C)c4c3F)c12 [Example 57, (1S,5S,6S)-3-(6-(8-ethynyl-7-fluoro-3-hydroxynaphthalen-1-yl)-7-fluoro-1-methyl-1H-pyrazolo[4,3-c]pyridin-3-yl)-3,8-diazabicyclo[3.2.1]octan-6-ol] | 0.737 µM | 17.3 µM | –
